These results are taken from patent US11236090B2, “Substituted glutarimides as CDK inhibitors” (SHANGHAI MEIZER PHARMACEUTICALS CO., LTD., priority 2017, dated 2022).

pIC50: −log10 of the molar value.

The target in assay [1] is T1, CDK4 (Homo sapiens, UniProt P11802). Nature of the assay: CDK4 protein degradation activity by Western blot in MCF-7 cells. It counts as cell-based. The note with it: MCF7, compound 1 μM, 24 hours. Also noted: host or cells: MCF-7. How it is done: (§1) Cell lines: MCF-7 cell lines (human breast cancer cells, available from ATCC) were cultured in MEM medium containing 10% calf serum in a 37° C., 5% CO2, and saturated humidity incubator. DMSO control group and compound intervention group (1 μM) were set. Cells were collected after the treatment for 24 hours, then 100 μL of pre-chilled cell lysate was added and cells were lysed on ice for 30 minutes, total cell protein was extracted, and protein concentration was determined and quantified by bicinchoninic acid method. After routine gelatinization, loading, electrophoresis, then transferring to membrane and blocking, rabbit anti-human CDK4 (1:450) and rabbit anti-human CDK6 (1:150) were added and incubated at 4° C. overnight. The mixture was rinsed and then secondary antibody IgG (1:5000) was added. After the rinsing it was developed by the ECL developing solution, the Bio-Rad gel imaging system was used for scanning and imaging, and the computer software was used for analysis. […] (GAPDH) was used as an internal control. Image J software was used to analyze the gray scale of each band to calculate the degradation rate of the compound to degrade CDK4/6 protein.
Target sequence in this assay (P11802 whole entry): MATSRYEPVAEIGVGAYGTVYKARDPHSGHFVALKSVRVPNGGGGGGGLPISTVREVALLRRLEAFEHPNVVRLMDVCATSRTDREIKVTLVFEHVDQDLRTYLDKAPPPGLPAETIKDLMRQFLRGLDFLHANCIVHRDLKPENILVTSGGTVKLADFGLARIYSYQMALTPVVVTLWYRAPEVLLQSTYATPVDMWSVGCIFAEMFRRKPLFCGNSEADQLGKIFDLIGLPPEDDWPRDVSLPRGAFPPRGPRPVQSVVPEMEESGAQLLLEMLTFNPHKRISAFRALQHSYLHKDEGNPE

The target in assay [2] is T2, CDK6 (Homo sapiens, UniProt Q00534). Briefly: CDK6 protein degradation activity by Western blot in MCF-7 cells. The format is cell-based. Also on record: host or cells: MCF-7. The settings on record: MCF7, compound 1 μM, 24 hours. How it is done: as §1
Target sequence in this assay (Q00534 whole entry): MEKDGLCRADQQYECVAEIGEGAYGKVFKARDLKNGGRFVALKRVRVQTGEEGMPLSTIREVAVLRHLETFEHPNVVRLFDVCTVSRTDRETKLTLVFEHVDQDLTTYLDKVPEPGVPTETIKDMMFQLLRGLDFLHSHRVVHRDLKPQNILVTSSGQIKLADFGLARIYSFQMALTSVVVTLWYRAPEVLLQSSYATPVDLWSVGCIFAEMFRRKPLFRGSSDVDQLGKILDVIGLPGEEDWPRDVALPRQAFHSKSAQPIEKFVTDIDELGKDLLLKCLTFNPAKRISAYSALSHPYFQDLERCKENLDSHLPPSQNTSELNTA
(A western blot detects proteins with antibodies after separation by electrophoresis.)

The target of assay [3] is T1, CDK4. Nature of the assay: CDK4 inhibition by Caliper assay. It counts as biochemical. The settings on record: compound 100 nM. The protocol: (§2) The experimental steps were as follows:
(§3) Preparation of 1×kinase reaction buffer (50 mM HEPES, PH 7.5; 0.0015% Brij-35) and kinase reaction termination solution (100 mM HEPES, PH 7.5; 0.0015% Brij-35; 0.2% Coating Reagent; 50 mM EDTA) preparation of experimental samples: 100 μL of 5 μM sample solution (dissolved in 100% DMSO) was added to a 96-well plate to obtain a 50×sample solution. As controls, two wells containing only 100 μL of 100% DMSO were set on the same plate. One was served as a control without samples and the other was served as a control without enzymes. 10 μL of sample and 90 μL of 1×kinase reaction buffer were added to a 96-well plate as a transfer plate. The transfer plate was shaken for 10 minutes.
(§4) Preparation of the test plate: taking 5 μL of each of the prepared samples in the 96-well transfer plate into a 384-well plate. Kinase reaction: to 5 μL of 5×compound solution (dissolved in DMSO, diluted 10 times with water) was added 10 μL of 2.5×CDK4/6 kinase solution (kinase was diluted with 1×kinase reaction buffer), which was incubated at room temperature for 10 min, and then 10 μL of 2.5×substrate peptide solution (FAM-labeled peptide and ATP were diluted with 1×kinase reaction buffer) was added. Termination of the kinase reaction: 25 μL of kinase reaction termination solution was added after being reacted at 28° C. for a period of time. The fluorescence (F) was tested on a Caliper and data was collected. The inhibition rate of kinase activity was calculated: the percent inhibition rate of kinase activity=(FDMSO control−Fsample)/(FDMSO control−Fnegative control)×100%, with DMSO as the solution control, and no kinase as the negative control.
Target sequence in this assay (P11802 whole entry, species assumed): as the sequence (P11802 whole entry) above
Target sequence in this assay (P30281 whole entry partner, species assumed): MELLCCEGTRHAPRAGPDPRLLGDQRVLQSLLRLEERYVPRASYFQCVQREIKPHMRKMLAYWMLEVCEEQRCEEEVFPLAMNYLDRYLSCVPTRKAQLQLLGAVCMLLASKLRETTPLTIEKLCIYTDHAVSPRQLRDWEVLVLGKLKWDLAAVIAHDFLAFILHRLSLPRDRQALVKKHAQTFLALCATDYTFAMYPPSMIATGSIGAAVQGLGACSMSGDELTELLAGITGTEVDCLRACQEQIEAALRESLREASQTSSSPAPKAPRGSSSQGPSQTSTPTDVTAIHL

Assay [4] has as its target T2, CDK6. Nature of the assay: CDK6 inhibition by Caliper assay. The format is biochemical. The note with it: compound 100 nM. The protocol:
as §2, §3, §4
Target sequence in this assay (Q00534 whole entry, species assumed): as the sequence (Q00534 whole entry) above
Target sequence in this assay (P30281 whole entry partner, species assumed): as the sequence (P30281 whole entry partner, species assumed) above

The next assay relates to MCF-7 cells. Nature of the assay: Inhibition of proliferation of MCF-7 cells by MTT assay. It counts as cell-based. The note with it: Homo sapiens, MCF7, 48 hours. How it is done:
The inhibitory effect of the compound on the proliferation of MCF-7 cells (commercially available from ATCC) was determined by the MTT method in vitro. […] Each compound was dissolved in dimethyl sulfoxide (DMSO) to obtain a solution with a concentration of 10 mM, and then diluted to the desired concentration with a phosphate buffer solution. The solution was added to the above 96-well plate. Each concentration has 2 wells with 10 μl per well. Each concentration was tested in duplicate. As a control, DMSO was diluted in the corresponding gradient and then added to the plate. After the 96-well plate was cultured in a 37° C., 5% CO2 cell incubator for 48 hours, 20 μl of MTT solution in 5 mg/ml was added to each well, and it was cultured in the incubator for another 3 to 4 hours. 100 μl of lysate was added to each well and the cells were further incubated overnight in the incubator to fully dissolve the formazan crystals generated. The light absorption value at 492 nm was measured. The relative survival rate of the cells after the compound treatment was calculated based on the light absorption value. The IC50 of the compound against MCF-7 cells was calculated by software.
For orientation: Tetrazolium assays rely on reduction of a dye to a coloured formazan, in cell work by metabolically active cells.

Another assay concerns T47D cells. Nature of the assay: Inhibition of proliferation of T47D cells by CCK8 assay. The format is cell-based. The settings on record: Homo sapiens, CCK8, 72 hours. The protocol:
The inhibitory effect of the compound on the proliferation of T47D cells (commercially available from ATCC) was determined by the CCK8 method in vitro. The experimental steps were as follows: T47D cells were cultured in 1640 medium of 10% calf serum, seeded in a 96-well plate with 1.5×10^5/ml, and placed in a 37° C., 5% CO2 incubator. Each compound or the positive drug (Ribociclib) was dissolved in dimethyl sulfoxide (DMSO) to obtain a solution with a concentration of 100 mM, and then diluted to the desired concentration with the culture medium. The solutions were then added to the above 96-well plates. Each concentration has 3 wells with 50 μl per well. As a control, DMSO was diluted in the corresponding gradient and then added to the plate. After the 96-well plate was cultured in a 37° C., 5% CO2 cell incubator for 72 hours, 110 μl of CCK8 solution in 9% was added to each well, and it was cultured in the incubator for another 4 hours. The light absorption value at 450 nm was measured. The relative survival rate of the cells after the compound treatment was calculated based on the light absorption value. The IC50 of the compound against T47D cells was calculated by software.

The Dmax is the largest share of the target that was removed. Read a high Dmax as deep degradation. `CC(=O)c1c(C)c2cnc(Nc3ccc(N4CCN(CCCCCNC(=O)COc5cccc6c5C(=O)N(C5CCC(=O)NC5=O)C6=O)CC4)cn3)nc2n(C2CCCC2)c1=O` (stereo not drawn) [Compound 38]: the Dmax at 1 µM on CDK4 [1] and on CDK6 [2] was more than 90% throughout.
For orientation: inhibition means the percentage by which the read-out fell short of the control. A low value points to little suppression. Turning to `CC(=O)c1c(C)c2cnc(Nc3ccc(N4CCN(CCCCOc5cccc6c5C(=O)N(C5CCC(=O)NC5=O)C6=O)CC4)cn3)nc2n(C2CCCC2)c1=O` (stereo not drawn) [Compound 24], the inhibition at 0.1 µM was determined as 96% at CDK4 [3] and 91% at CDK6 [4]. Further, the Dmax at 1 µM on CDK4 [1] and on CDK6 [2] was more than 90% in each case.
As for `CN(C)C(=O)c1cc2cnc(Nc3ccc(N4CCN(CCOCCNC(=O)COc5cccc6c5C(=O)N(C5CCC(=O)NC5=O)C6=O)CC4)cn3)nc2n1C1CCCC1` (stereo not drawn) [Compound 48], the figures for the Dmax at 1 µM on CDK4 [1] and at CDK6 [2] were more than 90% and 50 to 90%, respectively.
For the compound `CN(C)C(=O)c1cc2cnc(Nc3ccc(N4CCN(CCCCCNC(=O)COc5cccc6c5C(=O)N(C5CCC(=O)NC5=O)C6=O)CC4)cn3)nc2n1C1CCCC1` (stereo not drawn) [Compound 47], the Dmax at 1 µM at CDK4 [1] is more than 90%; on CDK6 [2], 50 to 90%.
As for `CC(=O)c1c(C)c2cnc(Nc3ccc(N4CCN(CCCCCCNc5cccc6c5C(=O)N(C5CCC(=O)NC5=O)C6=O)CC4)cn3)nc2n(C2CCCC2)c1=O` (stereo not drawn) [Compound 26], the Dmax at 1 µM on CDK4 [1] and on CDK6 [2] was 50 to 90% each time.
The term pIC50 denotes the negative decadic logarithm of the IC50, by convention in mol/L. A low value points to a large IC50. On to `CC(=O)c1c(C)c2cnc(Nc3ccc(N4CCN(CCOCCOCCNc5cccc6c5C(=O)N(C5CCC(=O)NC5=O)C6=O)CC4)cn3)nc2n(C2CCCC2)c1=O` (stereo not drawn) [Compound 15], for which the inhibition at 0.1 µM amounted to 91% at CDK4 [3] and 69% against CDK6 [4]. The compound further gave a pIC50 in the assay with MCF-7 cells of 6.66.
Regarding `CN(C)C(=O)c1cc2cnc(Nc3ccc(N4CCN(CCCNC(=O)COc5cccc6c5C(=O)N(C5CCC(=O)NC5=O)C6=O)CC4)cn3)nc2n1C1CCCC1` (stereo not drawn) [Compound 46], the results for the Dmax at 1 µM on CDK4 [1] and on CDK6 [2] were more than 90% and 50 to 90%, respectively.
With `CN(C)C(=O)c1cc2cnc(Nc3ccc(N4CCN(CCOCCOCCOCCNc5cccc6c5C(=O)N(C5CCC(=O)NC5=O)C6=O)CC4)cn3)nc2n1C1CCCC1` (stereo not drawn) [Compound 18], the inhibition at 0.1 µM at CDK4 [3] worked out at 80%; against CDK6 [4], 29%. The compound also gave a pIC50 in the assay with T47D cells of 5.09. Moreover, the Dmax at 1 µM at CDK4 [1] and on CDK6 [2] was more than 90% throughout.
As for `CN(C)C(=O)c1cc2cnc(Nc3ccc(N4CCN(CCOCCOCCNc5cccc6c5C(=O)N(C5CCC(=O)NC5=O)C6=O)CC4)cn3)nc2n1C1CCCC1` (stereo not drawn) [Compound 17], the inhibition at 0.1 µM against CDK4 [3] came out at 82%; against CDK6 [4] it was 25%. Also, the Dmax at 1 µM at CDK4 [1] and at CDK6 [2] was 50 to 90% throughout.
Turning to `CC(=O)c1c(C)c2cnc(Nc3ccc(N4CCN(CCOCCOCCOCCNc5cccc6c5C(=O)N(C5CCC(=O)NC5=O)C6=O)CC4)cn3)nc2n(C2CCCC2)c1=O` (stereo not drawn) [Compound 16], the figures for the inhibition at 0.1 µM on CDK4 [3] and against CDK6 [4] were 97% and 68%, respectively. Moreover, the Dmax at 1 µM at CDK4 [1] and on CDK6 [2] was 50 to 90% each time. Besides, the pIC50 with MCF-7 cells was 6.52.
In the case of `CN(C)C(=O)c1cc2cnc(Nc3ccc(N4CCN(CCOCCOCCOc5cccc6c5C(=O)N(C5CCC(=O)NC5=O)C6=O)CC4)cn3)nc2n1C1CCCC1` (stereo not drawn) [Compound 19], the inhibition at 0.1 µM against CDK4 [3] amounted to 80%; against CDK6 [4], 43%. Besides, the maximal degradation (Dmax) at 1 µM at CDK4 [1] was more than 90%; on CDK6 [2], 50 to 90%.
Turning to `CC(=O)c1c(C)c2cnc(Nc3ccc(N4CCN(CCCCCCCCOc5cccc6c5C(=O)N(C5CCC(=O)NC5=O)C6=O)CC4)cn3)nc2n(C2CCCC2)c1=O` (stereo not drawn) [Compound 25], the Dmax at 1 µM on CDK4 [1] and on CDK6 [2] was 50 to 90% in each case.
In the case of `CC(=O)c1c(C)c2cnc(Nc3ccc(N4CCN(CCOCCOCCOc5cccc6c5C(=O)N(C5CCC(=O)NC5=O)C6=O)CC4)cn3)nc2n(C2CCCC2)c1=O` (stereo not drawn) [Compound 8], the inhibition at 0.1 µM against CDK4 [3] came to 82%; at CDK6 [4], 84%. Further, the Dmax at 1 µM at CDK4 [1] and on CDK6 [2] was 50 to 90% throughout. In the assay on MCF-7 cells, this compound had a pIC50 of 6.70.
Regarding `CC(=O)c1c(C)c2cnc(Nc3ccc(N4CCN(CCCOCCNc5cccc6c5C(=O)N(C5CCC(=O)NC5=O)C6=O)CC4)cn3)nc2n(C2CCCC2)c1=O` (stereo not drawn) [Compound 27], the Dmax at 1 µM on CDK4 [1] and at CDK6 [2] was 50 to 90% in each case.
In the case of `CC(=O)c1c(C)c2cnc(Nc3ccc(N4CCN(S(=O)(=O)CCCCCOc5cccc6c5C(=O)N(C5CCC(=O)NC5=O)C6=O)CC4)cn3)nc2n(C2CCCC2)c1=O` (stereo not drawn) [Compound 14], the inhibition at 0.1 µM against CDK4 [3] is 92%; on CDK6 [4], 85%.
For `CC(=O)c1c(C)c2cnc(Nc3ccc(N4CCN(CCOCCOCCOCCOc5cccc6c5C(=O)N(C5CCC(=O)NC5=O)C6=O)CC4)cn3)nc2n(C2CCCC2)c1=O` (stereo not drawn) [Compound 21], the inhibition at 0.1 µM came to 93% at CDK4 [3] and 97% against CDK6 [4]. Also, the greatest degradation seen (Dmax) at 1 µM at CDK4 [1] and at CDK6 [2] was 50 to 90% in each case. Further, in the assay with MCF-7 cells, the pIC50 was 6.80.
`CC(=O)c1c(C)c2cnc(Nc3ccc(N4CCN(CCOCCCNc5cccc6c5C(=O)N(C5CCC(=O)NC5=O)C6=O)CC4)cn3)nc2n(C2CCCC2)c1=O` (stereo not drawn) [Compound 28]: the Dmax at 1 µM at CDK4 [1] and at CDK6 [2] was 50 to 90% in each case.
For `CN(C)C(=O)c1cc2cnc(Nc3ccc(N4CCN(CCOCCOCCOCCOc5cccc6c5C(=O)N(C5CCC(=O)NC5=O)C6=O)CC4)cn3)nc2n1C1CCCC1` (stereo not drawn) [Compound 20], the Dmax at 1 µM on CDK4 [1] and at CDK6 [2] was 50 to 90% each time.
In the case of `CC(=O)c1c(C)c2cnc(Nc3ccc(N4CCN(C(=O)COCCOCCNc5cccc6c5C(=O)N(C5CCC(=O)NC5=O)C6=O)CC4)cn3)nc2n(C2CCCC2)c1=O` (stereo not drawn) [Compound 11], the inhibition at 0.1 µM at CDK4 [3] is 93%; against CDK6 [4] it was 79%.
On to `CN(C)C(=O)c1cc2cnc(Nc3ccc(N4CCNCC4)cn3)nc2n1C1CCCC1` [Ribociclib, reference compound], for which, in the assay on T47D cells, the pIC50 was 4.16.
As to `CC(=O)c1c(C)c2cnc(Nc3ccc(N4CCN(CCCCCCOc5cccc6c5C(=O)N(C5CCC(=O)NC5=O)C6=O)CC4)cn3)nc2n(C2CCCC2)c1=O` (stereo not drawn) [Compound 23], the Dmax at 1 µM at CDK4 [1] and on CDK6 [2] was 50 to 90% each time.
